In brackets after ≈: the same amount, converted by molar mass. Counter-ions that a name gives are not always drawn.
What was measured:
[1] = test system: Streptococcus pyrogenes EES61; assay: In vitro antibacterial activity, MIC by agar dilution; type: cell-based; conditions: BHI agar, 35-37°C, 20-24 hours, unit assumed
Outline: (§1)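 Agar dilution; ~10^4 CFU/spot by replicator (1:100 dilution, 1:10 for slow growers); 35–37°C, ~20–24 h. MIC = lowest conc. with no growth (slight haze or sparse colonies allowed) vs drug-free BHI control; ciprofloxacin control.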

Escherichia coli KNK 437 = assay: as above; type: cell-based; conditions: BHI agar, 35-37°C, 20-24 hours, unit assumed
Outline: as §1

[2] = test system: Staphylococcus aureus A-5278; assay: as above; type: cell-based; conditions: BHI agar, 35-37°C, 20-24 hours, unit assumed
Outline: as §1

[3] = test system: Pseudomonas aeruginosa K799/61; assay: as above; type: cell-based; conditions: BHI agar, 35-37°C, 20-24 hours, unit assumed
Outline: as §1

Escherichia coli SS = assay: as above; type: cell-based; conditions: BHI agar, 35-37°C, 20-24 hours, unit assumed
Outline: as §1

[4] = test system: Micrococcus luteus ATCC 9341; assay: as above; type: cell-based; conditions: BHI agar, 35-37°C, 20-24 hours, unit assumed
Outline: as §1

[5] = test system: Streptococcus bovis A5169; assay: as above; type: cell-based; conditions: BHI agar, 35-37°C, 20-24 hours, unit assumed
Outline: as §1

[6] = test system: Klebsiella pneumoniae ATCC 8045; assay: as above; type: cell-based; conditions: BHI agar, 35-37°C, 20-24 hours, unit assumed
Outline: as §1

[7] = test system: Pseudomonas aeruginosa A5007; assay: as above; type: cell-based; conditions: BHI agar, 35-37°C, 20-24 hours, unit assumed
Outline: as §1

[8] = test system: Staphylococcus aureus CMX 553; assay: as above; type: cell-based; conditions: BHI agar, 35-37°C, 20-24 hours, unit assumed
Outline: as §1

[9] = test system: Staphylococcus aureus NCTC 10649; assay: as above; type: cell-based; conditions: BHI agar, 35-37°C, 20-24 hours, unit assumed
Outline: as §1

[10] = test system: Streptococcus pyrogenes CONST; assay: as above; type: cell-based; conditions: BHI agar, 35-37°C, 20-24 hours, unit assumed
Outline: as §1

[11] = test system: Streptococcus pyrogenes 2548 INDUC; assay: as above; type: cell-based; conditions: BHI agar, 35-37°C, 20-24 hours, unit assumed
Outline: as §1

[12] = test system: Staphylococcus aureus ATCC 6538P; assay: as above; type: cell-based; conditions: BHI agar, 35-37°C, 20-24 hours, unit assumed
Outline: as §1

[13] = test system: Enterococcus faecium ATCC 8043; assay: as above; type: cell-based; conditions: BHI agar, 35-37°C, 20-24 hours, unit assumed
Outline: as §1

Escherichia coli DC-2 = assay: as above; type: cell-based; conditions: BHI agar, 35-37°C, 20-24 hours, unit assumed
Outline: as §1

[14] = test system: Pseudomonas aeruginosa K799/WT; assay: as above; type: cell-based; conditions: BHI agar, 35-37°C, 20-24 hours, unit assumed
Outline: as §1

[15] = test system: Staphylococcus aureus A5177; assay: as above; type: cell-based; conditions: BHI agar, 35-37°C, 20-24 hours, unit assumed
Outline: as §1

[16] = test system: Micrococcus luteus ATCC 4698; assay: as above; type: cell-based; conditions: BHI agar, 35-37°C, 20-24 hours, unit assumed
Outline: as §1

[17] = test system: Pseudomonas aeruginosa BMH10; assay: as above; type: cell-based; conditions: BHI agar, 35-37°C, 20-24 hours, unit assumed
Outline: as §1

[18] = test system: Pseudomonas aeruginosa 2862; assay: as above; type: cell-based; conditions: BHI agar, 35-37°C, 20-24 hours, unit assumed
Outline: as §1

[19] = test system: Staphylococcus epidermidis 3519; assay: as above; type: cell-based; conditions: BHI agar, 35-37°C, 20-24 hours, unit assumed
Outline: as §1

[20] = test system: Pseudomonas aeruginosa 5263; assay: as above; type: cell-based; conditions: BHI agar, 35-37°C, 20-24 hours, unit assumed
Outline: as §1

[21] = test system: Staphylococcus aureus 642A; assay: as above; type: cell-based; conditions: BHI agar, 35-37°C, 20-24 hours, unit assumed
Outline: as §1

[22] = test system: Streptococcus agalactaciae CMX 508; assay: as above; type: cell-based; conditions: BHI agar, 35-37°C, 20-24 hours, unit assumed
Outline: as §1

Escherichia coli JUHL [23] = assay: as above; type: cell-based; conditions: BHI agar, 35-37°C, 20-24 hours, unit assumed
Outline: as §1

[24] = test system: Enterobacter aerogenes ATCC 13048; assay: as above; type: cell-based; conditions: BHI agar, 35-37°C, 20-24 hours, unit assumed
Outline: as §1

Escherichia coli H560 = assay: as above; type: cell-based; conditions: BHI agar, 35-37°C, 20-24 hours, unit assumed
Outline: as §1

[25] = test system: Staphylococcus aureus 1775; assay: as above; type: cell-based; conditions: BHI agar, 35-37°C, 20-24 hours, unit assumed
Outline: as §1

Pseudomonas cepacia 296I = assay: as above; type: cell-based; conditions: BHI agar, 35-37°C, 20-24 hours, unit assumed
Outline: as §1

[26] = test system: Providencia stuartii CMX 640; assay: as above; type: cell-based; conditions: BHI agar, 35-37°C, 20-24 hours, unit assumed
Outline: as §1

[27] = test system: Acinetobacter calcoaceticus CMX 669; assay: as above; type: cell-based; conditions: BHI agar, 35-37°C, 20-24 hours, unit assumed
Outline: as §1

[28] = test system: Staphylococcus aureus NCTC 10649; assay: In vivo antibacterial activity in mice (protection from lethal intraperitoneal infection); conditions: NCTC10649, 144 h, S. aureus, CF-1 female mice infected intraperitoneally with 100 times the LD50, treated at 1 and 5 hr after infection, cumulative mortalities on the sixth day
Protocol: (§2) The in vivo antibacterial activity of the compounds of the present invention was determined as follows: Aqueous solutions of the test compounds were prepared by dissolving the compound in distilled water, except for the compounds of examples 169 and 170 which were dissolved in a solution of 2% DMSO in distilled water.
(§3) After 18 hr incubation, a culture of Staphylococcus aureus NCTC 10649 was serially diluted by using 10-fold dilutions in 5% (w/v) hog gastric mucin. Cultures (0.5 mL) in a dilution from 10^-1 to 10^-8 were injected intraperitoneally into CF-1 female mice weighing approximately 20g. The LD50 (median lethal dose) for the test organism was calculated from the cumulative mortalities on the sixth day by the using the Reed and Muench procedure (Reed, L.J., and H. Muench, Amer. J. Hygiene, 27, 493 (1938)).
(§4) The above 18 hr culture was diluted in 5% (w/v) hog gastric mucin to obtain 100 times the LD50, and 0.5 mL was injected intraperitoneally into mice. The mice were treated subcutaneously (sc) or orally (po) with a specific amount of the test compound divided equally to be administered at 1 and 5 hr after infection. A group of 10 animals each for at least three dose levels was thus treated, and the deaths were recorded daily for 6 days. Ten mice were left untreated as infection control. ED50 values were calculated from the cumulative mortalities on the sixth day after infection by using the trimmed version of the Logit method ( Hamilton, M.A., R.C. Russo, and R.V. Thurston, Environ. Sci. Technol. 11, 714 (1977)).

Escherichia coli JUHL [29] = assay: as above; conditions: 144 h, E. coli JUHL, mice infected intraperitoneally, treated at 1 and 5 hr after infection, cumulative mortalities on the sixth day
Protocol: as §2, §3, §4
The LD50 for Escherichia coli JUHL was determined in a manner similar to that above for S. aureus. The 18 hr cultures of this organism were also prepared for po and sc testing in mice, from which ED50 values were calculated. Positive controls were run with temafloxacin as the test compound, for which ED50 values were also calculated.

SMILES | MIC values [1] | MIC values (Escherichia coli KNK 437) | MIC values [2] | MIC values [3] | MIC values (Escherichia coli SS) | MIC values [4] | MIC values [5] | MIC values [6] | MIC values [7] | MIC values [8] | MIC values [9] | MIC values [10] | MIC values [11] | MIC values [12] | MIC values [13] | MIC values (Escherichia coli DC-2) | MIC values [14] | MIC values [15] | MIC values [16] | MIC values [17] | further results
CC(=O)N[C@H]1C[C@H](C)N(c2nc3c(-c4ccc(F)cc4F)cc(C(=O)O)c(=O)n3cc2F)C1 [Example 169, 2-((2S,4S)-4-Acetamido-2-methylpyrrolidin-1-yl)-9-(2,4-difluorophenyl)-3-fluoro-6H-6-oxopyrido[1,2-a]pyrimidine-7-carboxylic acid] | 0.78 µg/mL (≈ 1.69 µM) | 6.2 µg/mL (≈ 13.5 µM) | 0.2 µg/mL (≈ 0.434 µM) | 0.39 µg/mL (≈ 0.847 µM) | 0.005 µg/mL (≈ 0.0109 µM) | 3.1 µg/mL (≈ 6.73 µM) | 3.1 µg/mL (≈ 6.73 µM) | 0.39 µg/mL (≈ 0.847 µM) | 3.1 µg/mL (≈ 6.73 µM) | 0.39 µg/mL (≈ 0.847 µM) | 0.2 µg/mL (≈ 0.434 µM) | 0.39 µg/mL (≈ 0.847 µM) | 0.39 µg/mL (≈ 0.847 µM) | 0.1 µg/mL (≈ 0.217 µM) | 1.56 µg/mL (≈ 3.39 µM) | 12.5 µg/mL (≈ 27.1 µM) | 3.1 µg/mL (≈ 6.73 µM) | 0.2 µg/mL (≈ 0.434 µM) | 0.39 µg/mL (≈ 0.847 µM) | 3.1 µg/mL (≈ 6.73 µM) | MIC values [18]: > 100 µg/mL; MIC values [19]: 0.39 µg/mL (≈ 0.847 µM); MIC values [20]: > 100 µg/mL; MIC values [21]: 0.39 µg/mL (≈ 0.847 µM); MIC values [22]: 0.78 µg/mL (≈ 1.69 µM); MIC values (Escherichia coli JUHL [23]): 0.78 µg/mL (≈ 1.69 µM); MIC values [24]: 3.1 µg/mL (≈ 6.73 µM); MIC values (Escherichia coli H560): 0.78 µg/mL (≈ 1.69 µM); MIC values [25]: 25 µg/mL (≈ 54.3 µM); MIC values (Pseudomonas cepacia 296I): 25 µg/mL (≈ 54.3 µM); MIC values [26]: 25 µg/mL (≈ 54.3 µM); MIC values [27]: 3.1 µg/mL (≈ 6.73 µM); ED50 ([28]; po): > 48 mg/kg; ED50 ([28]; sc): 7.5 mg/kg
NC1CCN(c2nc3c(-c4c(F)c(F)c(F)c(F)c4F)cc(C(=O)O)c(=O)n3cc2F)C1 (stereo not drawn) [Example 172, 2-(3-Aminopyrrolidin-1-yl)-3-fluoro-9-(2,3,4,5,6-pentafluorophenyl)-6H-6-oxopyrido[1,2-a]pyrimidine-7-carboxylic acid hydrochloride salt] | > 100 µg/mL | > 100 µg/mL | 50 µg/mL | 6.2 µg/mL | 0.39 µg/mL | > 100 µg/mL | > 100 µg/mL | 3.1 µg/mL | 50 µg/mL | > 100 µg/mL | 50 µg/mL | > 100 µg/mL | > 100 µg/mL | 50 µg/mL | > 100 µg/mL | > 100 µg/mL | 100 µg/mL | 100 µg/mL | > 100 µg/mL | 50 µg/mL | MIC values [18]: > 100 µg/mL; MIC values [19]: 50 µg/mL; MIC values [20]: > 100 µg/mL; MIC values [21]: 100 µg/mL; MIC values [22]: > 100 µg/mL; MIC values (Escherichia coli JUHL [23]): 6.2 µg/mL; MIC values [24]: 6.2 µg/mL; MIC values (Escherichia coli H560): 6.2 µg/mL; MIC values [25]: > 100 µg/mL; MIC values (Pseudomonas cepacia 296I): > 100 µg/mL; MIC values [26]: > 100 µg/mL; MIC values [27]: 25 µg/mL
C[C@H](N)C(=O)N[C@@H](C)C(=O)N[C@H]1C[C@H](C)N(c2nc3c(-c4ccc(F)cc4F)cc(C(=O)O)c(=O)n3cc2F)C1 [Example 173, 2-((2S, 4S)-4-(N-(S)-Alanyl-(S)-alanyl)amino-2-methylpyrrolidin-1-yl)-9-(2,4-difluorophenyl)-3-fluoro-6H-6-oxopyrido[1,2-a]pyrimidine-7-carboxylic acid hydrochloride] | 12.5 µg/mL | 100 µg/mL | 6.2 µg/mL | 3.1 µg/mL | 0.1 µg/mL | > 100 µg/mL | 25 µg/mL | 3.1 µg/mL | 50 µg/mL | 12.5 µg/mL | 1.56 µg/mL | 12.5 µg/mL | 6.2 µg/mL | 1.56 µg/mL | 50 µg/mL | > 100 µg/mL | 100 µg/mL | 6.2 µg/mL | 100 µg/mL | 50 µg/mL | MIC values [18]: > 100 µg/mL; MIC values [19]: 6.2 µg/mL; MIC values [20]: > 100 µg/mL; MIC values [21]: 12.5 µg/mL; MIC values [22]: 12.5 µg/mL; MIC values (Escherichia coli JUHL [23]): 6.2 µg/mL; MIC values [24]: 25 µg/mL; MIC values (Escherichia coli H560): 3.1 µg/mL; MIC values [25]: > 100 µg/mL; MIC values (Pseudomonas cepacia 296I): > 100 µg/mL; MIC values [26]: > 100 µg/mL; MIC values [27]: 25 µg/mL
CC1CN(c2cc3c(cc2F)c(=O)c(C(=O)O)cn3-c2ccc(F)cc2F)CCN1 (stereo not drawn) [temafloxacin, reference compound] | – | – | – | – | – | – | – | – | – | – | – | – | – | – | – | – | – | – | – | – | ED50 (Escherichia coli JUHL [29]; po): 1.5 mg/kg; ED50 (Escherichia coli JUHL [29]; sc): 0.5 mg/kg; ED50 ([28]; po): 1.5 mg/kg; ED50 ([28]; sc): 1.3 mg/kg

— patent publication EP0527889B1, “QUINOLIZINONE TYPE COMPOUNDS” (priority 1990, dated 1991)
